Source: patent US10286057B2, “Cyclic HIV-1 Env V3 glycopeptide immunogens” (DUKE UNIVERSITY, priority 2013, dated 2019)
Ends that are not written are not given here. * marks the point of attachment. Man3GlcNAc2 = CC(=O)N[C@@H]1[C@@H](O)[C@H](O[C@@H]2O[C@H](CO)[C@@H](O[C@@H]3O[C@H](CO[C@H]4O[C@H](CO)[C@@H](O)[C@H](O)[C@@H]4O)[C@@H](O)[C@H](O[C@H]4O[C@H](CO)[C@@H](O)[C@H](O)[C@@H]4O)[C@@H]3O)[C@H](O)[C@H]2NC(C)=O)[C@@H](CO)O[C@H]1*

How the values were obtained:
[1] = tested on: RV144 mAb CH58; assay: Reactivity of RV144 mAb CH58 toward V1V2 glycopeptides; assay type: binding; conditions: data not shown
Description: (§1) This is the first antigen known to bind to the PG9 UCA. […] Thus, these two V1V2 peptide-glycans have selective reactivity toward the V1V2 BnAbs, and react poorly or not at all with the CH58 mature and UCA antibodies. Therefore, these V1V2 peptide-glycan immunogens are prime candidates for selective induction of V1V2 BnAb lineages that are normally sub-dominant with infrequent UCAs.

[2] = tested on: BnAb CH01; assay: SPR (Biacore) binding of V1V2 antigens to BnAb CH01; conditions: FIG. 1C, antigen 200 μg/ml
Description: (§2) FIGS. 1A-1E. Initial evaluation of synthetic V1V2 glycopeptide constructs. […] Surface plasmon reasonance (SPR) analysis of the interaction of V1V2 Man5GlcNAc2 (green), Man3GlcNAc2 (red), GlcNAc2 (blue), or aglycone (magenta) antigens with BnAbs PG9 (FIG. 1B), CH01 (FIG. 1C), or their respective umutated common ancestor (UCA) antibodies, PG9 UCA (FIG. 1D), and CH01-04 UCA (FIG. 1E). Concentration of antigens was 200 μg/ml for FIGS. […], and 100 μg/ml for FIGS. 1D and 1E, RU=response units
(§3) Using chemical methods (see, for example, those referenced above), a set of homogeneous V1V2 glycopeptides bearing Man3GlcNAc2, Man5GlcNAc2, and GlcNAc2 N-glycans were synthesized de novo (FIG. 1A). […] Importantly, binding by the naked “aglycone” (FIGS. 1B,C) or the solitary protein-free Man3 and Man5 oligosaccharides (data not shown) was not observed.

[3] = tested on: BnAb PG9; assay: SPR (Biacore) binding of V1V2 antigens to BnAb PG9; conditions: FIG. 1B, antigen 200 μg/ml
Description: as §2, §3

[4] = tested on: CH58 UCA; assay: Reactivity of CH58 UCA toward V1V2 glycopeptides; assay type: binding; conditions: data not shown
Description: as §1

[5] = tested on: CH01-04 UCA; assay: SPR binding of V1V2 antigens to CH01 UCA; conditions: FIG. 1E, antigen 100 μg/ml
Description: as §2, §1

[6] = tested on: PGTs 125-128 and 130; conditions: cited from earlier work
[7] = tested on: PG9 UCA; assay: SPR binding of V1V2 antigens to PG9 UCA; conditions: FIG. 1D, antigen 100 μg/ml
Description: as §2, §1

[8] = tested on: BnAb PG9; conditions: from previous work; cited from earlier work
[9] = tested on: BnAb CH01; conditions: from previous work; cited from earlier work
[10] = tested on: PGT128; conditions: protein-free glycan; cited from earlier work
[11] = tested on: PGT125; assay: SPR binding to captured mAb PGT125; conditions: FIG. 13B
Description: (§4) Both PGT128 and PGT125 are dependent on Man9 glycans on position N332 and N301 (Pejchal et al., 2011), with N332 being the primary glycan.
(§5) Binding of V3 Bnab to Man9 glycan.

[12] = tested on: PGT128; assay: SPR binding to captured mAb PGT128; conditions: FIG. 13A
Description: as §4, §5

[13] = tested on: V3 loop non-neutralizing mAb 19b; assay: SPR binding to captured V3 loop non-neutralizing mAb 19b; conditions: FIG. 12 and FIG. 13D
Description: as §4, §5

[14] = tested on: 2G12; assay: Binding to mAb 2G12; conditions: FIG. 13C
Description: (§6) FIG. 13A-D show binding of PGT mAbs to synthetic Man9GlcNAc2 glycan. Binding of V3 Bnab to Man9 glycan. […] Thus, the binding of Man9GlcnAc2 glycan was detected only for V3-glycan dependent PGT BNAbs.
FIGS. 11-13 depict various experimental data showing that synthetic glycopeptides, such as for example the peptide of FIG. 1, can show differential binding to bnAbs vs non-neutralizing antibodies. […] Both 2G12 mAb and 2G12 UCA bound well to Man5 V1V2 dimer, indicating recognition of the glycan cluster on a V2 backbone.

[15] = tested on: V1V2 mAb PGT145; assay: Binding to V1V2 mAb PGT145; conditions: FIG. 13D
Description: as §6

## Man5 construct: V1V2 glycopeptide (SEQ ID NO: 9) bearing two N-linked Man5GlcNAc2 at N160 and N156 (ITDEVRN(Man5GlcNAc2)CSFN(Man5GlcNAc2)MTTELRDKKQKVHALFYKLDIVPI)
[1]
  reactivity of mAb CH58: almost no affinity
[2]
  binding to BnAb CH01: bind
[3]
  binding to BnAb PG9: bind
[4]
  reactivity of CH58 UCA: almost no affinity
[5]
  affinity for CH01 UCA: to a lesser extent

## CC(=O)N[C@@H]1[C@@H](O)[C@H](O[C@@H]2O[C@H](CO)[C@@H](O[C@H]3O[C@H](CO[C@H]4O[C@H](CO[C@H]5O[C@H](CO)[C@@H](O)[C@H](O)[C@@H]5O[C@H]5O[C@H](CO)[C@@H](O)[C@H](O)[C@@H]5O)[C@@H](O)[C@H](O[C@H]5O[C@H](CO)[C@@H](O)[C@H](O)[C@@H]5O)[C@@H]4O)[C@@H](O)[C@H](O[C@H]4O[C@H](CO)[C@@H](O)[C@H](O)[C@@H]4O[C@H]4O[C@H](CO)[C@@H](O)[C@H](O)[C@@H]4O[C@H]4O[C@H](CO)[C@@H](O)[C@H](O)[C@@H]4O)[C@@H]3O)[C@H](O)[C@H]2NC(C)=O)[C@@H](CO)O[C@H]1O [Man8, reference compound]
[6]
  binding of PGTs 125-128 and 130 on glycan arrays: showed binding

## Man5GlcNAc2 [Man5 oligosaccharide]
[2]
  binding to BnAb CH01: not observed
[3]
  binding to BnAb PG9: not observed

## Man3 construct: V1V2 glycopeptide (SEQ ID NO: 9, AE.CM244/A244) bearing two N-linked Man3GlcNAc2 at N160 and N156 (ITDEVRN(Man3GlcNAc2)CSFN(Man3GlcNAc2)MTTELRDKKQKVHALFYKLDIVPI)
[1]
  reactivity of mAb CH58: only weak reactivity
[2]
  binding to BnAb CH01: bind
[7]
  affinity for PG9 UCA: significant affinity
[3]
  binding to BnAb PG9: bind
[4]
  reactivity of CH58 UCA: only weak reactivity
[5]
  affinity for CH01 UCA: significant affinity

## aglycone: V1V2 peptide of SEQ ID NO: 9 with zero glycans (ITDEVRNCSFNMTTELRDKKQKVHALFYKLDIVPI)
[2]
  binding to BnAb CH01: not observed
[8]
  binding to PG9: did not show binding
[3]
  binding to BnAb PG9: not observed
[9]
  binding to CH01: did not show binding

## CC(=O)N[C@H]1[C@H](O[C@H]2[C@H](O)[C@@H](NC(C)=O)C(O)O[C@@H]2CO)O[C@H](CO)[C@@H](O[C@@H]2O[C@H](CO[C@H]3O[C@H](CO)[C@@H](O)[C@H](O)[C@@H]3O)[C@@H](O)[C@H](O[C@H]3O[C@H](CO)[C@@H](O)[C@H](O)[C@@H]3O)[C@@H]2O)[C@@H]1O (stereo partly drawn) [Man3 oligosaccharide, Man3GlcNAc2]
[2]
  binding to BnAb CH01: not observed
[3]
  binding to BnAb PG9: not observed
[10]
  binding of PGT128 on glycan arrays: not observed

## CC(=O)N[C@H]1[C@H](O[C@H]2[C@H](O)[C@@H](NC(C)=O)C(O)O[C@@H]2CO)O[C@H](CO)[C@@H](O[C@@H]2O[C@H](CO[C@H]3O[C@H](CO[C@H]4O[C@H](CO)[C@@H](O)[C@H](O)[C@@H]4O[C@H]4O[C@H](CO)[C@@H](O)[C@H](O)[C@@H]4O)[C@@H](O)[C@H](O[C@H]4O[C@H](CO)[C@@H](O)[C@H](O)[C@@H]4O[C@H]4O[C@H](CO)[C@@H](O)[C@H](O)[C@@H]4O)[C@@H]3O)[C@@H](O)[C@H](O[C@H]3O[C@H](CO)[C@@H](O)[C@H](O)[C@@H]3O[C@H]3O[C@H](CO)[C@@H](O)[C@H](O)[C@@H]3O[C@H]3O[C@H](CO)[C@@H](O)[C@H](O)[C@@H]3O)[C@@H]2O)[C@@H]1O (stereo partly drawn) [Man9 glycan, Man9GlcNAc2]
[11]
  affinity of PGT125 binding to free glycan: affinities in μM
[6]
  binding of PGTs 125-128 and 130 on glycan arrays: showed binding
[12]
  affinity of PGT128 binding to free glycan: affinities in μM
[13]
  binding to non-neutralizing V3 mAb 19b: no binding
[14]
  2G12 binding to free glycan: only detected at the highest concentration
[15]
  binding to V1V2 mAb PGT145: no binding
